Data taken from US20230364025A1, “PROTEIN-RELEASE SYSTEM FOR SUSTAINED RELEASE OF PROTEINS” (THE GOVERNING COUNCIL OF THE UNIVERSITY OF TORONTO, priority 2022, published 2023).

Key:
[1] = system: bevacizumab; experiment: Bio-layer interferometry binding of immobilized Fc-ligands to bevacizumab; details: biotinylated peptide immobilized at 100 nM on SAX biosensors
Procedure: (§1) Binding kinetic measurements were performed on the Octet RED96 system (ForteBio, CA) using single-use high-precision streptavidin biosensors (SAX). Assay buffer was defined as 1×PBS comprising 0.05% Tween-20 (PBST). Biotinylated peptides FcL-1 and FcL-2 were immobilized at 100 nM. Non-specific interactions were minimized by including a blocking step using SuperBlock prior to each baseline response. […] A double-referencing experiment was used to assess the binding interactions of Fc-noggin to both peptides. Peptides were immobilized in sample sensors while reference sensors were dipped in assay buffer. For association, the sample and reference sensors were dipped into Fc-noggin. All experiments included one biosensor dipped in assay buffer during association for background normalization.
(§2) Affinity interactions of the modified peptide ligands to different antibodies were evaluated via bio-layer interferometry. […] Dissociation constants between the binding pairs were determined using the Octet Data Analysis Software. […] A heterogeneous 2:1 ligand binding model was used for the evaluation of the equilibrium dissociation constants of the chosen peptide ligands to anti-sFRP2 or Fc-Noggin.

[2] = system: panitumumab; experiment: Bio-layer interferometry binding of immobilized Fc-ligands to panitumumab; details: biotinylated peptide immobilized at 100 nM on SAX biosensors
Procedure: as §1, §2

[3] = system: anti-sFRP2; experiment: Bio-layer interferometry binding of immobilized Fc-ligands to anti-sFRP2; details: biotinylated peptide immobilized at 100 nM on SAX biosensors
Procedure: as §1, §2

[4] = biological target: T1, Fc-Noggin (Mus musculus, UniProt P97466); experiment: Bio-layer interferometry binding of immobilized Fc-ligands to Fc-Noggin; details: biotinylated peptide immobilized at 100 nM on SAX biosensors
T1 construct: Fc (immunoglobulin Fc region); purchased R&D systems
T1 sequence (P97466 with tags, fused parts or gaps): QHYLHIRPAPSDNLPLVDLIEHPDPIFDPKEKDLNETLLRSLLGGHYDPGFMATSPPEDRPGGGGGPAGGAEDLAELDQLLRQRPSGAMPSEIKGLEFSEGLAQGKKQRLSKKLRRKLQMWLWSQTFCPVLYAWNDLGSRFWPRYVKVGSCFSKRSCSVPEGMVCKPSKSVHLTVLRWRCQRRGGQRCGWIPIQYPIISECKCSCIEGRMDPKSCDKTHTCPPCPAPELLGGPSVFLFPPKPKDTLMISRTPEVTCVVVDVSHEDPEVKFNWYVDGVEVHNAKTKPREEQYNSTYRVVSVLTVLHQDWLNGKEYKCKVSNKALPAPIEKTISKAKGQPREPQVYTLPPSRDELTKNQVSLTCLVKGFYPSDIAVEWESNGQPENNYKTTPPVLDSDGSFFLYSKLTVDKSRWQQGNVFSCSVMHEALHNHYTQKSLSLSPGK
Procedure: as §1, §2

[5] = In vitro controlled release of proteins from HAKT-oxime gels, quantified by ELISA; type: physicochemical; details: for cumulative release: after 2 days
Procedure: HAKT and HAKT-FcL-1 were dissolved in PBS to yield a final HA content of 12.5 mg/mL with 0 or 100 molar excesses of peptide to protein and mixed with PEGOA4 at 80 mol %. […] Release media was defined as 1×PBS comprising 0.1 wt % bovine serum albumin and Roche cOmplete™ Protease Inhibitor Cocktail (1 tablet/ 10 mL, Roche, Switzerland). Protein release was evaluated by incubating HAKT-oxime gels with 400 μL of release media on an orbital shaker at 37° C. Supernatants were collected and replaced with fresh release media after 2 h, 6 h, 1 d, 2 d, 3 d, 5 d, and 7 d. HAKT-oxime hydrogels were digested after the last time point using 500 IU/mL hyaluronidase in 400 μL of PBS. Fc-Noggin concentrations were evaluated using a mouse Noggin ELISA (RayBiotech).
Subsequently, the wells were washed with 200 μL TPBS (1× PBS with 0.05% Tween 20) four times and blotted dry on paper towels. Standard and analyte samples were added to each well (100 μL) and incubated for 2.5 h at room temperature on an orbital shaker. The wells were then washed as previously described and blotted dry. […] 100 μL of anti-Fc antibody diluted at appropriate concentrations was added to each well and incubated for 1.5 h at room temperature. A solution of 3,3′,5,5′-Tetramethylbenzidine (TMB) was added (100 ul) to each well. […] Then, a stop solution comprising 2N H2SO4 (50 μL) was added to each well and the absorbance was measured at 450 nm. Protein concentration was determined using the linear range in the standard curve. Protein samples were diluted to fit within the linear range.

[6] = biological target: hlgG1 (Homo sapiens, UniProt P01857); details: interacting with hlgG1; Reese et al., 2020; cited from earlier work
hlgG1, sequence (P01857 1-328 limits assumed): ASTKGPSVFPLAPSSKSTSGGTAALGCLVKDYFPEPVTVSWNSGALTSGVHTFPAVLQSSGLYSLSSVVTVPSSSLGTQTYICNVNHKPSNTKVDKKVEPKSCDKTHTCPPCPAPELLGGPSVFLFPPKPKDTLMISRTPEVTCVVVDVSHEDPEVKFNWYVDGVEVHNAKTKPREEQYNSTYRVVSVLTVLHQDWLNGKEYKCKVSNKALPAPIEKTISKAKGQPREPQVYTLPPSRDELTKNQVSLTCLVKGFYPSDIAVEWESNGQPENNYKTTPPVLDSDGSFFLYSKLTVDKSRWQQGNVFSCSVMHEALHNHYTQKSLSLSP

Compound | binding to bevacizumab [1] | binding to panitumumab [2] | binding to anti-sFRP2 [3] | binding to Fc-Noggin [4] | controlled release from HAKT-gel ([5]; FcL-1 at 100-fold molar excess vs no peptide, 37° C., 7 days) | cumulative release ([5]; from HAKT-FcL1-oxime) [%] | cumulative release ([5]; from HAKT-oxime (no peptide)) | Kd [6] [µM]
CC(C)[C@H](NC(=O)[C@H](Cc1c[nH]c2ccccc12)NC(=O)CNC(=O)[C@H](CCCNC(=N)N)NC(=O)[C@H](Cc1c[nH]c2ccccc12)NC(=O)[C@@H](N)Cc1c[nH]cn1)C(=O)NCC(=O)N[C@@H](C)C(=O)N[C@@H](CCCCNC(=O)CCCC[C@@H]1SC[C@@H]2NC(=O)N[C@@H]21)C(=O)N[C@@H](CO)C(=O)N[C@@H](CCCCN)C(=O)NCC(=O)O [FcL1] | shown to bind | shown to bind | shown to bind | shown to bind | – | – | – | –
bevacizumab: antibody against VEGF; Research Grade Bevacizumab Biosimilar | – | – | – | – | confirmed controlled release | 60 | approximately 100% | –
HWRWGV | – | – | – | – | – | – | – | 14.2
(CFHH)2KGAKSKG [FcL2] | demonstrated binding only to anti-sFRP2 | demonstrated binding only to anti-sFRP2 | demonstrated binding only to anti-sFRP2 | demonstrated binding only to anti-sFRP2 | – | – | – | –
